Results: patent US20250340661A1, “ANTI CD40 ANTIBODY, ANTIGEN BINDING FRAGMENT AND MEDICAL USE THEREOF” (Jiangsu Hengrui Pharmaceuticals Co., Ltd., priority 2021, published 2025)

System: human CD40 transgenic mice
Assay: Mouse skin graft rejection model
Assay type: in vivo
Settings: for Skin graft score: 3 mpk
Excerpt: Male Balb/c mice, 6 weeks old, were purchased from the Laboratory Animal Management Department, Shanghai Institute of Planned Parenthood Research. Housing environment: SPF; certification number: 20180006023393.
On day −2 of the experiment, the mice were intraperitoneally injected with tacrolimus FK506 or CD40 antagonistic antibodies. On day 0 of the experiment, donor Balb/c mice and C57BL6/J mice were anesthetized with 4% chloral hydrate. The tails of the donor mice were removed, and full circles of skin, 1 cm in length, were isolated from the tails. The hair on the acceptor mice's back was removed, and an incision was made along the skin layer. An equal area of skin was removed while preserving the back fat and connective tissue. The donor skin was placed on the acceptor mice's incision site, and the incision was closed with glue. The mice were then placed back in cages to recover.
The mice were dosed according to the administration regimens in Table 17. After 7 days of recovery, the mouse skin survival was observed daily and rejection scores were recorded.

## C=CC[C@@H]1/C=C(\C)C[C@H](C)C[C@H](OC)[C@H]2O[C@@](O)(C(=O)C(=O)N3CCCC[C@H]3C(=O)O[C@H](/C(C)=C/[C@@H]3CC[C@@H](O)[C@H](OC)C3)[C@H](C)[C@@H](O)CC1=O)[C@H](C)C[C@@H]2OC [FK506, tacrolimus, reference compound]
8 days, scale 3 (no rejection) to 0
  Skin graft score: 2.5
10 days, scale 3 to 0
  Skin graft score: 1.5
15 days, scale 3 to 0
  Skin graft score: 0.5
20 days, scale 3 to 0
  Skin graft score: 0
Day 15, 3 mpk ip
  Skin graft survival rate (%): 16.7%
